The text below walks through data of patent publication US8372867B2, “Insecticidal aryl isoxazoline derivatives” (Bayer CropScience AG, priority 2007, dated 2013).

The term mortality denotes the share of the test organisms that died.

One assay concerns Spodoptera litura. Description: Test against larva of Spodoptera litura (leaf dip). The assay is classed as in vivo. The conditions noted are these: 100 ppm of the active compound; third instar larvae; after 7 days. On the procedure:
Solvent: Dimethylformamide 3 parts by weight
Emulsifier: Polyoxyethylene alkyl phenyl ether 1 part by weight
(§1) To prepare an appropriate formulation of an active compound, 1 part by weight of the active compound was mixed with the aforementioned amount of the solvent containing the aforementioned amount of the emulsifier, and the mixture was diluted to a prescribed concentration with water.
Leaves of sweet potate were soaked in the test agent diluted to a prescribed concentration with water, air-dried, and placed in a dish of 9 cm in diameter. Into this dish, 10 larvae of Spodoptera litura at the third instar were released and kept in a room at constant temperature of 25° C. After 2 and 4 days, more leaves of sweet potato were added, and the number of dead larvae after 7 days was counted to calculate the death rate. In this test, the test results are presented as an average of the results of two dishes per section.

The next assay concerns Aulacophora femoralis. Description: Test against Aulacophora femoralis (leaf dip). The assay is classed as in vivo. Conditions: 100 ppm of the active compound; second instar larvae; after 7 days. The method, then:
as §1
Leaves of cucumbers were soaked in a diluted aqueous solution of the prescribed concentration of an active compound prepared in the same manner as in the aforementioned tests, air-dried, and placed a plastic cup containing sterilized black soil. Into this cup, 5 larvae of Aulacophora femoralis at second instar were then released. After 7 days, the number of dead larvae was counted to calculate the death rate.

The subject of assay [1] is organic phosphorus agent- and carbamate agent-resistant Myzus persicae. In words: Test against organic phosphorus agent- and carbamate agent-resistant Myzus persicae (spray). The class given is in vivo. The conditions noted are these: 500 ppm of the active compound; adults on eggplant; 7 days at 28° C. The method, then: as §1
About 30 to 50 adults of organic phosphorus agent- and carbamate agent-resistant Myzus persicae per seedling were inoculated to leaves of eggplants at two leaf stage cultured in a pot of 6 cm in diameter. One day after the inoculation, an ample amount of the diluted aqueous solution of the prescribed concentration of an active compound prepared in the same manner as in the aforementioned tests was sprayed with a spray gun. After the spraying, the pot was kept in a greenhouse at 28° C. for 7 days, the death rate was calculated. The test was duplicated.

The next assay relates to Amblyomma hebraeum. Description: Test against Amblyomma hebraeum (nymph dip). The class given is in vivo. The conditions noted are these: 1008 h, read-out: activity (mortality in %). The method, then: Nymphs of the tick Amblyomma hebraeum are placed in perforated plastic beakers and immersed in aqueous compound solution for one minute. Ticks are transferred to a filter paper in a Petri dish and incubated in a climate chamber for 42 days.

The subject of another assay is Lucilia cuprina larvae. Description: whole plant or invertebrate. Conditions: in Equus caballus, read-out: activity (mortality in %).
Assay [2] concerns Musca domestica. In words: whole plant or invertebrate. Conditions: read-out: activity (mortality in %).
The subject of assay [3] is Boophilus microplus. Description: whole plant or invertebrate. The conditions noted are these: Rhipicephalus microplus, 168 h, read-out: activity (mortality in %).
For a further assay, the system named is Ctenocephalides felis. In words: Test against Ctenocephalides felis (Example 5-1, blood feeding, dimethylformamide). The assay is classed as in vivo. The conditions noted are these: 100 ppm of the active ingredient; adults fed on treated blood. The method, then:
In order to prepare an appropriate formulation of an active compound, 10 mg of the active compound is dissolved in 0.5 mL of the aforementioned solvent, and the mixture is diluted to a prescribed concentration with blood from domestic animals.
About 10 to 15 adults of Ctenocephalides felis were kept in a flea-specific container. Another container containing the blood solution containing the compound prepared as described above was covered with a laboratory film [[…]™]. The blood containing container was turned upside down and placed on the flea-specific container. This system enables Ctenocephalides felis to suck the blood in the container. The blood solution was kept at 37° C. and the flea-specific container was kept at room temperature. After a certain period of time, the death rate of Ctenocephalides felis was calculated. For this test, the death rate of 100% means death of all Ctenocephalides felis, while the death rate of 0% means that all the fleas survived.

Assay [4] relates to Boophilus microplus. Description: Test against Boophilus microplus (injection, Example 6-1, dimethylformamide). The class given is in vivo. Conditions: dose of 20 ug/animal; injection into abdomen of fully fed adult females. On the procedure:
(§2) In order to prepare an appropriate formulation of an active compound, 10 mg of the active compound was dissolved in 0.5 mL of the aforementioned solvent, and the mixture was diluted to a prescribed concentration with water.
A solution of a compound formulated as above was injected into 5 fully fed adult female Boophilus microplus in their abdomen. These Boophilus microplus were transferred to a replica dish and kept in an incubating cabinet for a certain period of time.
After a certain period of time, the death rate of Boophilus microplus was calculated. In this test, the death rate of 100% means death of all Boophilus microplus, while the death rate of 0% means that all the mites survive.

In a further assay the test system is Lucillia cuprina. Description: Test against Lucillia cuprina (Example 7-1, dimethylformamide). The assay is classed as in vivo. The conditions noted are these: 100 ppm of the active ingredient; larvae on minced horsemeat. The method, then: as §2
About 20 to 30 larvae of Lucillia cuprina were placed into a test tube containing 1 cm^3 of minced horsemeat and 0.5 mL of an aqueous solution of a compound prepared as above.
After a certain period of time, the death rate of Lucillia cuprina was calculated. For this test, the death rate of 100% means death of all Lucillia cuprina, while the death rate of 0% means that all the flies survived.

Assay [5] has as its system Musca domestica. In words: Test against Musca domestica (Example 8-1, dimethylformamide). The assay is classed as in vivo. Conditions: 100 ppm of the active ingredient; adults, sugar/compound soaked sponge. The method, then:
In order to prepare an appropriate formulation of an active compound, 10 mg of the active compound was dissolved in 0.5 mL of the above solvent, and the resultant mixture was diluted to a prescribed concentration with water.
As a preparatory stage, a mixture of sugar and an aqueous solution of a compound prepared as above was absorbed into a sponge of a given size, and the sponge was place into a test container. 10 adult insects of Musca domestica were placed into the container, and the container was covered with a perforated cover.
After a certain period of time, the death rate of Musca domestica is calculated. In this test, the death rate of 100% means death of all Musca domestica, while the death rate of 0% means that all the flies survived.

The test system of assay [6] is Ctenocephalides felis felis. Description: Efficacy against fleas Ctenocephalides felis felis on cats. The class given is in vivo. The conditions noted are these: 0.1 ml/kg (15 mg/kg) applied as Spot-on, once on day 0, weekly reinfestation. On the procedure:
On study days −4 and −1 prior to treatment cats are infested with about 100 adult not fed fleas (Ctenocephalides felis felis). The fleas are released on the neck on the fur of the cats
On study day 0 the flea infestation rate is checked by counting the fleas on the animals. The number of live fleas is recorded.
After flea counting the cats are treated with the investigational product. Cats of the control group are left untreated and serve as negative control group. The investigational veterinary product is applied dermally as one spot at a dose volume of 0.1 to 0.2 ml/kg body weight. Treatment is performed only once on study day 0. Only healthy cats are treated and included in the study.
Flea counts are performed on study days 1 and/or 2 where the cats are combed and the number of live fleas recorded. The results are documented.
In weekly intervals the cats are reinfested with about 100 adult not fed fleas per cat. One and/or two days after reinfestation the cats are combed and the live fleas counted for each animal. The results are recorded.
Efficacy should be given over a three to four week period
For the calculation of the effectiveness the modified Abbott formula is used: […]

For the next assay, the system named is Ixodes ricinus. Description: Efficacy against ticks (Ixodes ricinus) on cats. The assay is classed as in vivo. The conditions noted are these: 0.1 ml/kg (15 mg/kg) applied as Spot on, once on day 0, weekly reinfestation. On the procedure: On study days −4 and/or −1 cats are sedated with a combination of the active ingredients ketaminhydrochloride and acepromazinmaleat. After all cats are sedated (approximately after 10-15 minutes) the cats are placed in single cages and 50 Ixodes ricinus ticks (25 female and 25 male) are released on the fur on the back of the cat. The cats are sleeping for about 1 h to 1.5 h and restrained from grooming and removing the ticks.
On study days −3 or 0 tick infestation rate is checked, while the cats are placed on an examination table. The area around the head, ears, eyes, neck and lateral and ventral part of the body and between the toes is checked intensively. The number of live attached engorged ticks is counted and recorded. Dead ticks are removed.
After tick counting on study day 0 treatment is performed. Cats of the control group are left untreated and serve as negative control group. The investigational veterinary product is applied as one single spot on the skin at the base of the skull. Treatment is performed only once on day 0. […]
On study day 1 and/or 2 tick counts are performed and the number of life or dead attached ticks counted and recorded. […]
In weekly intervals each cat is infested with 50 Ixodes ricinus ticks (25 female and 25 male) and tick counts are performed 1 and/or 2 days after reinfestation. Life and dead attached ticks are counted and recorded. […]

Turning to `O=C(NCc1ccc(C2=NOC(c3cc(Cl)cc(Cl)c3)(C(F)(F)F)C2)cc1Br)c1ccccc1Cl` (stereo not shown) [1-31], the death rate (with Spodoptera litura; in the assay on Aulacophora femoralis; in assay [1]) was 100% throughout.

In the case of `CC(=S)NCc1ccc(C2=NOC(c3cc(Cl)cc(Cl)c3)(C(F)(F)F)C2)cc1Br` (stereo not shown) [1-44, N-{2-bromo-4-[5-(3,5-dichlorophenyl)-5-(trifluoromethyl)-4,5-dihydroisoxazol-3-yl]benzyl}ethanethioamide], the death rate in the assay with Spodoptera litura and with Aulacophora femoralis was 100% each time. The mortality at 100 ppm in the assay on Amblyomma hebraeum, in the assay on Lucilia cuprina larvae, in the assay with Musca domestica [2] and in the assay with Boophilus microplus [3] was no less than 80% throughout.

For the compound `CC(=O)N(Cc1ccccn1)Cc1ccc(C2=NOC(c3cc(Cl)cc(Cl)c3)(C(F)(F)F)C2)cc1C#N` (stereo not shown) [1-61, N-{2-cyano-4-[5-(3,5-dichlorophenyl)-5-(trifluoromethyl)-4,5-dihydroisoxazol-3-yl]benzyl}-N-(pyridin-2-ylmethyl)acetamide], the death rate (with Spodoptera litura; in the assay on Aulacophora femoralis; in [1]) was 100% throughout. Moreover, the mortality at 100 ppm with Lucilia cuprina larvae and in the assay with Musca domestica [2] was no less than 80% in each case.

Take `CC(=O)NCc1ccc(C2=NOC(c3cc(Cl)cc(Cl)c3)(C(F)(F)F)C2)cc1C` (stereo not shown) [1-63, N-{4-[5-(3,5-dichlorophenyl)-5-(trifluoromethyl)-4,5-dihydroisoxazol-3-yl]-2-methylbenzyl}acetamide]: the death rate in the assay with Spodoptera litura and in the assay on Aulacophora femoralis was 100% throughout. The mortality at 100 ppm in the assay with Lucilia cuprina larvae, in the assay with Musca domestica [2] and in the assay on Boophilus microplus [3] was no less than 80% each time.

Consider `CC(=O)N(Cc1ccccn1)Cc1ccc(C2=NOC(c3cc(Cl)cc(Cl)c3)(C(F)(F)F)C2)cc1C` (stereo not shown) [1-64], for which the death rate entry with Ctenocephalides felis, in the assay with Boophilus microplus [4], with Lucillia cuprina and in the assay on Musca domestica [5] was “more than 80%” throughout.

As for `CC(=O)NCc1ccc(C2=NOC(c3cc(Cl)c(Cl)c(Cl)c3)(C(F)(F)F)C2)cc1Br` (stereo not shown) [1-129], the “efficacy (modified Abbott formula)” value is greater than 95% in [6] and greater than 90% with Ixodes ricinus.
